One series relates to S. aureus ATCC 13709. Description: Thigh burden, neutropenic mouse thigh infection. In kind it is in vivo. The note with it: maximum log10 reduction in bacteria compared to untreated control, achieved at tested doses; neutropenic mice, IV. How it is done:
Female CD-1 mice were pre-treated with cyclophosphamide to render the mice neutropenic. Mice were infected with S. aureus ATCC 13709 via injection into the right thigh muscle of 0.1 ml per mouse. One and a half hours post infection mice were treated IV with test compounds in doses ranging from 0.3 to 30 mg/kg or 0.3 to 20 mg/kg. Four mice were treated with each drug concentration. Twenty-four hours post treatment, mice were euthanized by CO2 inhalation. The right thighs of the mice were aseptically removed, weighed, homogenized, serially diluted, and plated on TSA medium. The plates were incubated overnight at 37° C. in 5% CO2. Colony forming units per gram of thigh was calculated by enumerating the plated colonies then adjusting for serial dilutions and the weight of the thigh.

Another series concerns E. coli ATCC 25922. Description: GN sepsis study, mouse systemic infection model. In kind it is in vivo. The note with it: mg/kg required to protect 50% of mice in septicemia model with E. coli strain. How it is done:
Compounds of the present invention were evaluated for efficacy in a mouse systemic infection model against a susceptible S. aureus isolate, ATCC 13709. Mice were infected via intraperitoneal injection with a bacterial load that would result in 0% survival within 48 hours after infection. Mice received the test compounds 60 minutes post infection via intravenous injection. […] Survival was assessed over a 48 hour period. Percent survival was calculated and PD50 values determined using Probit analysis. The protocol for GN sepsis study was similar to the protocol for EV50 IV study described above except the infection model used E. coli ATCC 25922.

For series [1], the system named is S. aureus isolate, ATCC 13709. Description: ED50 IV study, mouse systemic infection model. The series is classed as in vivo. The note with it: Staphylococcus aureus, ATCC13709, mg/kg required to protect 50% of mice in septicemia model with S. aureus Smith strain, 60 minutes post infection, 48 hour survival. How it is done: (§1) Compounds of the present invention were evaluated for efficacy in a mouse systemic infection model against a susceptible S. aureus isolate, ATCC 13709. Mice were infected via intraperitoneal injection with a bacterial load that would result in 0% survival within 48 hours after infection. Mice received the test compounds 60 minutes post infection via intravenous injection. […] Survival was assessed over a 48 hour period. Percent survival was calculated and PD50 values determined using Probit analysis.

Series [2] has as its system clinical isolates of E. coli. Description: EC MIC90. The series is classed as cell-based. The note with it: Escherichia coli; inhibit 90% of E. coli clinical isolates (n = 20); read-out: EC MIC 90. How it is done: Twenty randomly selected clinical isolates of S. aureus were used to determine the minimal inhibitory concentration (MIC) of test compounds for 90% of the isolates (MIC90). MICs were performed by microtiter broth dilution in a 96-well format according to Clinical Laboratory Standards Institute (CLSI) guidelines, as described above. Twenty randomly selected clinical isolates of E. coli were used to determine the MIC90 as described above.

Series [3] has as its system S. aureus SA161, a tetracycline-resistant strain. Description: Tet-R sepsis study, mouse systemic infection model. The series is classed as in vivo. The note with it: mg/kg required to protect 50% of mice in septicemia model with tetracycline-resistant S. aureus strain. How it is done: as §1
The protocol for tetracycline-resistance sepsis study was similar to the protocol for EV50 IV study described above except the infection model used S. aureus SA161, a tetracycline-resistant strain.

In series [4] the test system is clinical isolates of S. aureus. Description: SA MIC90. The series is classed as cell-based. The note with it: Staphylococcus aureus; inhibit 90% of S. aureus clinical isolates (n = 20); read-out: SA MIC 90. How it is done:
Twenty randomly selected clinical isolates of S. aureus were used to determine the minimal inhibitory concentration (MIC) of test compounds for 90% of the isolates (MIC90). MICs were performed by microtiter broth dilution in a 96-well format according to Clinical Laboratory Standards Institute (CLSI) guidelines, as described above. Viable counts were determined by 10-fold serial dilution. Dilutions were prepared in sterile 0.9% NaCl. Ten microliters of the inoculum and of each of 5 dilutions were plated onto blood or Mueller Hinton agar plates, incubated overnight at 37° C. with 5% CO2, and counted.

Series [5] is described as follows: Protein binding in human plasma (RED devices). The series is classed as in vitro ADME. The note with it: % Protein binding in human plasma with compound at 10 uM. How it is done: Test compounds were prepared as 1.0 mg/mL stock solutions in DMSO. The analytes and internal standard were diluted and infused into the LC/MS system to determine optimal ionization, polarity and MS/MS fragmentation for selection of specific MRM (multiple reaction monitoring) transitions. Generic chromatographic conditions were developed with a less than 5 minute cycle time.
[…] The time point was removed at the end of the incubation period. After a protein crash with acetonitrile, the samples were analyzed by LC/MS/MS. Peak areas for the buffer (receiver) and sample (donor) chambers were compared and the protein bound fraction is calculated. Analysis was conducted in duplicate.

Series [6] can be described thus: Metabolic stability, pooled human microsome assay. The series is classed as in vitro ADME. The note with it: % compound remaining after 60 min, 37° C. incubation with human liver microsomes. How it is done: A stock solution of the test compounds were prepared by dissolving the compound in DMSO to a final concentration of 1.0 mg/mL. The analytes and internal standard were diluted and infused into the LC/MS system to determine optimal ionization, polarity and MS/MS fragmentation for selection of specific MRM (multiple reaction monitoring) transitions. Generic chromatographic conditions were developed with a less than 5 minute cycle time. Pooled human microsome assays were conducted at 0.2 mg/mL protein with an NADPH generating cofactor system (1.3 mM NADP+, 3.3 mM glucose-6-phosphate, 0.4 U/mL glucose-6-phosphate dehydrogenase, and 3.3 mM magnesium chloride). Test compounds were diluted from DMSO stocks to 1 μM reaction concentrations. Time points were removed at 0 and 60 minutes. After a protein crash with acetonitrile, samples are analyzed by LC/MS/MS. Peak areas are compared to the time 0 sample, and the percent analyte remaining is calculated. A reaction containing no cofactor was used to control for analyte loss due to non-specific binding, thermal degradation and solubility.
In general terms: Liver microsomes are a subcellular fraction often used to study metabolism.

For series [7], the system named is tetracycline-resistant S. aureus. Description: TetR MIC90. In kind it is cell-based. The note with it: Staphylococcus aureus; inhibit 90% of tetracycline-resistant S. aureus (n = 10); read-out: TetR MIC 90. How it is done: Twenty randomly selected clinical isolates of S. aureus were used to determine the minimal inhibitory concentration (MIC) of test compounds for 90% of the isolates (MIC90). MICs were performed by microtiter broth dilution in a 96-well format according to Clinical Laboratory Standards Institute (CLSI) guidelines, as described above.

Values after ≈ are worked out from the molar mass of the structure shown.

Turning to `CN(C)[C@@H]1C(O)=C(C(N)=O)C(=O)[C@@]2(O)C(O)=C3C(=O)c4c(O)c(NC(=O)CNC(C)(C)C)cc(F)c4C[C@H]3C[C@@H]12` [drawing 214], in the series on S. aureus ATCC 13709, the “Thigh Burden” value was 4.41 log10 decrease. For the same compound, the GN sepsis with E. coli ATCC 25922 came out at 6.2 mg/kg. In addition, in series [1], it took a dose of 0.3 mg/kg to reach the 50% effect level (ED50). The MIC90 was 0.5 µg/mL (≈ 0.892 µM) in series [2], 0.03 µg/mL (≈ 0.0535 µM) in series [4] and 2 µg/mL (≈ 3.57 µM) in series [7]. In series [3], the TetR sepsis came to 0.4 mg/kg. Moreover, the “Prot Bind %” value in series [5] is on record as 90%. In addition, in series [6], the “Meta Stab %” value is listed as 104%.
For `CN(C)[C@@H]1C(O)=C(C(N)=O)C(=O)[C@@]2(O)C(O)=C3C(=O)c4c(O)c(NC(=O)CNCC5CC5)cc(F)c4C[C@H]3C[C@@H]12` [drawing 218], in [1], it took a dose of 0.55 mg/kg to reach the 50% effect level (ED50). Further, the MIC90 in [2] turned out to be 2 µg/mL (≈ 3.58 µM); in [4], 0.03 µg/mL (≈ 0.0537 µM); in series [7], 8 µg/mL (≈ 14.3 µM). Besides, the “Prot Bind %” value in [5] turned out to be 87.9%. Besides, the “Meta Stab %” value in [6] is listed as 65%.
Take `CC(C)CNCC(=O)Nc1cc(F)c2c(c1O)C(=O)C1=C(O)[C@]3(O)C(=O)C(C(N)=O)=C(O)[C@@H](N(C)C)[C@@H]3C[C@@H]1C2` [drawing 215]: in the series with S. aureus ATCC 13709, the “Thigh Burden” value is 5.01 log10 decrease. The compound further registered a GN sepsis in the series with E. coli ATCC 25922 of 14.3 mg/kg. Moreover, in series [1], the 50% effect level (ED50) was put at a dose of 0.55 mg/kg. The values for the MIC90 in [2], in series [4] and in [7] were 1 µg/mL (≈ 1.78 µM), 0.03 µg/mL (≈ 0.0535 µM) and 4 µg/mL (≈ 7.14 µM), respectively. For the same compound, the TetR sepsis in [3] was 3.5 mg/kg. The “Prot Bind %” value in series [5] is recorded as 95.6%. The “Meta Stab %” value in series [6] is recorded as 72%.
Regarding `CN(C)[C@@H]1C(O)=C(C(N)=O)C(=O)[C@@]2(O)C(O)=C3C(=O)c4c(O)c(NC(=O)CN5CCC5)cc(F)c4C[C@H]3C[C@@H]12` [drawing 216], the median effective dose (ED50) (usually the midpoint of the dose-response relation) in [1] was 0.07 mg/kg. The values for the MIC90 in series [2], in series [4] and in [7] were 0.5 µg/mL (≈ 0.918 µM), 0.03 µg/mL (≈ 0.0551 µM) and 4 µg/mL (≈ 7.35 µM), respectively. In addition, in series [5], the “Prot Bind %” value was determined as 87.1%. In [6], the “Meta Stab %” value was determined as 85%.
For the compound `CN(C)CC(=O)Nc1cc(F)c2c(c1O)C(=O)C1=C(O)[C@]3(O)C(=O)C(C(N)=O)=C(O)[C@@H](N(C)C)[C@@H]3C[C@@H]1C2` [drawing 220], the “Thigh Burden” value with S. aureus ATCC 13709 was 4.12 log10 decrease. Also, the GN sepsis in the series with E. coli ATCC 25922 came out at 4.3 mg/kg. This compound also showed an ED50 in [1] of 0.073 mg/kg. The MIC90 stood at 4 µg/mL (≈ 7.51 µM) in [2], 0.06 µg/mL (≈ 0.113 µM) in series [4] and 4 µg/mL (≈ 7.51 µM) in series [7]. This compound also displayed a TetR sepsis in series [3] of 0.62 mg/kg. Moreover, the “Prot Bind %” value in [5] was determined as 93.6%. The “Meta Stab %” value in series [6] is 109%.
In series [1], `CC(C)NCC(=O)Nc1cc(F)c2c(c1O)C(=O)C1=C(O)[C@]3(O)C(=O)C(C(N)=O)=C(O)[C@@H](N(C)C)[C@@H]3C[C@@H]1C2` [drawing 219] returned a median effective dose (ED50) of 0.3 mg/kg. Moreover, the MIC90 in series [2] was determined as 1 µg/mL (≈ 1.83 µM); in series [4], 0.06 µg/mL (≈ 0.11 µM); in series [7] it was 2 µg/mL (≈ 3.66 µM). Also, in [5], the “Prot Bind %” value worked out at 96.9%. Besides, the “Meta Stab %” value in series [6] is recorded as 96%.
Regarding `CN(C)c1cc(NC(=O)CNC(C)(C)C)c(O)c2c1C[C@H]1C[C@H]3[C@H](N(C)C)C(O)=C(C(N)=O)C(=O)[C@@]3(O)C(O)=C1C2=O`, the “Thigh Burden” value in the series on S. aureus ATCC 13709 is on record as 4.89 log10 decrease. Also, in the series on E. coli ATCC 25922, the GN sepsis worked out at 2.1 mg/kg. Also, the ED50 in series [1] worked out at 0.97 mg/kg. For the same compound, the MIC90 was found to be 0.5 µg/mL (≈ 0.854 µM) in [2], 0.06 µg/mL (≈ 0.102 µM) in [4] and 1 µg/mL (≈ 1.71 µM) in series [7]. This compound displayed a TetR sepsis in [3] of 0.55 mg/kg. Moreover, the “Prot Bind %” value in [5] is reported as 69.1%. The “Meta Stab %” value in series [6] was 55%.
Take `CN(C)[C@@H]1C(O)=C(C(N)=O)C(=O)[C@@]2(O)C(O)=C3C(=O)c4c(O)c(NC(=O)CN5CCCC5)cc(F)c4C[C@H]3C[C@@H]12` [drawing 217]: the “Thigh Burden” value in the series on S. aureus ATCC 13709 came out at 5.24 log10 decrease. The compound also yielded a GN sepsis in the series with E. coli ATCC 25922 of 4.36 mg/kg. The compound also registered an ED50 in series [1] of 0.3 mg/kg. In addition, the MIC90 in [2] was determined as 0.5 µg/mL (≈ 0.895 µM); in series [4], 0.03 µg/mL (≈ 0.0537 µM); in series [7] it was 2 µg/mL (≈ 3.58 µM). The same compound showed a TetR sepsis in series [3] of 1 mg/kg. The “Prot Bind %” value in series [5] came to 79.4%. Besides, the “Meta Stab %” value in series [6] was determined as 86%.

The record behind these values is patent US8796245B2 (TetraPhase Pharmaceuticals, Inc., priority 2008, dated 2014).
